Measured values published in patent publication US20220017512A1 (SHANGHAI ENNOVABIO PHARMACEUTICALS CO., LTD., priority 2018, published 2022).

Assays:
Format in all cases: biochemical
[1] = biological target: T1, recombinant human TRKA (G667C) (Homo sapiens, UniProt P04629, G667C); assay: In vitro activity test on mutant TRKA (G667C) (HTRF KinEASE TK); settings: 5.5 μM ATP, 30 min
T1 construct: purchased SignalChem
Method: (§1) Biological Test Example 2 In Vitro Activity Test on Mutant TRKA (G595R), TRKA (G667C) and TRKC (G623R)
(§2) The recombinant human TRKA (G595R), TRKA (G667C) and TRKC (G623R) proteins were purchased from SignalChem. HTRF kinEASE TK kit was purchased from CisbioBioassays. Synergy Neo 2 of Biotek was used to read the plate.
(§3) The tested compound was subjected to 4-fold serial dilution to reach a final concentration of 1 μM to 0.004 nM (10 concentrates), duplicates for each concentration; and 1% DMSO was present in the detection reaction.
0.026 ng/μL TRKA (G667C) kinase, 1 μM TK Substrate-biotin polypeptide substrate, 5.5 μm ATP, 1× enzymatic buffer, 5 mM MgCl2, and 1 mM DTT. The detection plate was White Proxiplate 384-Plus plate (PerkinElmer), and incubated at room temperature for 30 min, the assay volume was 10 μL.
(§4) 10 μL of detection reagent was added to the plate (containing 0.125 μM SA-XL665 and 5 μL 1×TK-Antibody) and incubated overnight at room temperature, and Synergy Neo 2 was used to read the plate.
(§5) The value of 665/620 Ratio minus the value of negative control wells without enzyme, then the obtained value was converted according to the following formula into inhibition rate (%)=(1−Ratiotest/Ratiomax)×100%. Ratiomax was a positive control without tested compound, and Ratiotest was the value of each concentration of different compounds. IC50 (nM) data was obtained by 4 parameter curve fitting (see Table 1).

Recombinant human TRKC = biological target: T2, Recombinant human TRKC (Homo sapiens, UniProt Q16288); assay: In vitro activity test on TRKC kinase (HTRF KinEASE TK); settings: 25.64 μM ATP, 40 min
T2 construct: purchased Carna Biosciences
Method: (§6) Biological Test Example 1 In Vitro Activity Test on TRKA, TRKB, TRKC Kinase
(§7) Recombinant human TRKA, TRKB, TRKC proteins were purchased from Carna Biosciences. HTRF KinEASE TK kit was purchased from Cisbio Bioassays. Synergy Neo 2 of Biotek was used to read the plate.
(§8) The tested compound was subjected to 3-fold serial dilution to reach a final concentration of 1 μM to 0.05 nM (10 concentrations), duplicates for each concentration; and the DMSO concentration in the detection reaction was 1%.
0.037 ng/μL TRKC protein kinase, 1 μM TK Substrate-biotin polypeptide substrate, 25.64 μM ATP, 1× enzymatic buffer, 5 mM MgCl2, and 1 mM DTT. The detection plate was White Proxiplate 384-Plus plate (PerkinElmer), and incubated at room temperature for 40 min, and the assay volume was 10 μL.
as §4
as §5, with “The” for “The value of”, “Ratio” for “Ratio minus the value of negative control wells without enzyme, then the obtained value”

Recombinant human TRKA = biological target: T3, Recombinant human TRKA (Homo sapiens, UniProt P04629); assay: In vitro activity test on TRKA kinase (HTRF KinEASE TK); settings: 14.68 μM ATP, 40 min
T3 construct: purchased Carna Biosciences
Method: as §6, §7, §8
0.2 ng/μL TRKA protein kinase, 1 μM TK Substrate-biotin polypeptide substrate, 14.68 μM ATP, 1× enzymatic buffer, 5 mM MgCl2, and 1 mM DTT. The detection plate was White Proxiplate384-Plus plate (PerkinElmer), and incubated at room temperature for 40 min, and the assay volume was 10 μL.
as §4
as §5, with “The” for “The value of”, “Ratio” for “Ratio minus the value of negative control wells without enzyme, then the obtained value”

Recombinant human TRKB = biological target: T4, Recombinant human TRKB (Homo sapiens, UniProt Q16620); assay: In vitro activity test on TRKB kinase (HTRF KinEASE TK); settings: 4.77 μM ATP, 50 min
T4 construct: purchased Carna Biosciences
Method: as §6, §7, §8
0.037 ng/μL TRKB protein kinase, 1 μM TK Substrate-biotin polypeptide substrate, 4.77 μM ATP, 1× enzymatic buffer, 5 mM MgCl2, and 1 mM DTT. The detection plate was White Proxiplate 384-Plus plate (PerkinElmer), and incubated at room temperature for 50 min, and the assay volume was 10 μL.
as §4
as §5, with “The” for “The value of”, “Ratio” for “Ratio minus the value of negative control wells without enzyme, then the obtained value”

[2] = biological target: T5, recombinant human TRKA (G595R) (Homo sapiens, UniProt P04629, G595R); assay: In vitro activity test on mutant TRKA (G595R) (HTRF KinEASE TK); settings: 4.5 μM ATP, 30 min
T5 construct: purchased SignalChem
Method: as §1, §2, §3
0.12 ng/μL TRKA (G595R) kinase, 1 μM TK Substrate-biotin polypeptide substrate, 4.5 μM ATP, 1× enzymatic buffer, 5 mM MgCl2, and 1 mm DTT. The detection plate was White Proxiplate384-Plus plate (PerkinElmer), and incubated at room temperature for 30 min, and the assay volume was 10 μL.
as §4, §5

T5 sequence (P04629 33-796 G595R): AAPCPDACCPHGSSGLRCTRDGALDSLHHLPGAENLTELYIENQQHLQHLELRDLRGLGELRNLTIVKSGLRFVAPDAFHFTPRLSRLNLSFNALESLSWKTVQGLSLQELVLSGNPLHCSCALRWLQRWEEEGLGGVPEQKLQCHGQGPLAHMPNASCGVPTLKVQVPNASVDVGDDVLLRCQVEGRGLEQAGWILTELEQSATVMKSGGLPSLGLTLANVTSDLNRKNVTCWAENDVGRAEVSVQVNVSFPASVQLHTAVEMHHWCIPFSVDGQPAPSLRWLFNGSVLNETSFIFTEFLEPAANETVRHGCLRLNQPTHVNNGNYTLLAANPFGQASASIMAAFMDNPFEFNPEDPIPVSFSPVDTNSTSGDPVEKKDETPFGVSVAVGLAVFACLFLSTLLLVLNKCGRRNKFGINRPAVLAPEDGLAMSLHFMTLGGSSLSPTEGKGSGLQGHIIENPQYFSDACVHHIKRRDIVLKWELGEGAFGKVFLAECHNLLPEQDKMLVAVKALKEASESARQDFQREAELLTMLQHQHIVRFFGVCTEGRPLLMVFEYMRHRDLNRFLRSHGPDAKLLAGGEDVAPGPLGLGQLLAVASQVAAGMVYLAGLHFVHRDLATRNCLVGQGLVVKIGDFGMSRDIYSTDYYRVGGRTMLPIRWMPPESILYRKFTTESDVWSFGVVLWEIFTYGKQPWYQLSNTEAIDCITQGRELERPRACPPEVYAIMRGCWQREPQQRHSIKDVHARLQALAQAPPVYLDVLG
T2 sequence (Q16288 32-839): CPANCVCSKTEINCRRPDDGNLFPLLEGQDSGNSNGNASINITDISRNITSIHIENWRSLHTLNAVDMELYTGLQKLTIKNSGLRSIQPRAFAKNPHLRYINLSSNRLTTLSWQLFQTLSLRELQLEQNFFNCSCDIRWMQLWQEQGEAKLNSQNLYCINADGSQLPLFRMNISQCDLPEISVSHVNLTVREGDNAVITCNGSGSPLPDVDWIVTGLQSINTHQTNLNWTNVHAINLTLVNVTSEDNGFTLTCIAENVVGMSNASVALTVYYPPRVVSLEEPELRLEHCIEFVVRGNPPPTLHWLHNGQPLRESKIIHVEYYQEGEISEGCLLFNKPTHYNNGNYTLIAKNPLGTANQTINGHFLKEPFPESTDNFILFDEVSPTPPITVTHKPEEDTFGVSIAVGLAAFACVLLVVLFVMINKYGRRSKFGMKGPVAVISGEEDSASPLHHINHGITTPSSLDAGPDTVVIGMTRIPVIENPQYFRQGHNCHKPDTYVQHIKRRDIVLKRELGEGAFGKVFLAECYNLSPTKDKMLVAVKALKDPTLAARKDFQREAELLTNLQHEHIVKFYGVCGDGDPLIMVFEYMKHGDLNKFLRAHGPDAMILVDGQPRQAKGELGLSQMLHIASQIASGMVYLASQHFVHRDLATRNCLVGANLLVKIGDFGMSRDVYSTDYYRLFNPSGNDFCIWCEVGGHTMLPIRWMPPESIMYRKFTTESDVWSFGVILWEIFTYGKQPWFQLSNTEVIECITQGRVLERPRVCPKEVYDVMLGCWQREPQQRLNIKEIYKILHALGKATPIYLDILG
T4 sequence (Q16620 32-822): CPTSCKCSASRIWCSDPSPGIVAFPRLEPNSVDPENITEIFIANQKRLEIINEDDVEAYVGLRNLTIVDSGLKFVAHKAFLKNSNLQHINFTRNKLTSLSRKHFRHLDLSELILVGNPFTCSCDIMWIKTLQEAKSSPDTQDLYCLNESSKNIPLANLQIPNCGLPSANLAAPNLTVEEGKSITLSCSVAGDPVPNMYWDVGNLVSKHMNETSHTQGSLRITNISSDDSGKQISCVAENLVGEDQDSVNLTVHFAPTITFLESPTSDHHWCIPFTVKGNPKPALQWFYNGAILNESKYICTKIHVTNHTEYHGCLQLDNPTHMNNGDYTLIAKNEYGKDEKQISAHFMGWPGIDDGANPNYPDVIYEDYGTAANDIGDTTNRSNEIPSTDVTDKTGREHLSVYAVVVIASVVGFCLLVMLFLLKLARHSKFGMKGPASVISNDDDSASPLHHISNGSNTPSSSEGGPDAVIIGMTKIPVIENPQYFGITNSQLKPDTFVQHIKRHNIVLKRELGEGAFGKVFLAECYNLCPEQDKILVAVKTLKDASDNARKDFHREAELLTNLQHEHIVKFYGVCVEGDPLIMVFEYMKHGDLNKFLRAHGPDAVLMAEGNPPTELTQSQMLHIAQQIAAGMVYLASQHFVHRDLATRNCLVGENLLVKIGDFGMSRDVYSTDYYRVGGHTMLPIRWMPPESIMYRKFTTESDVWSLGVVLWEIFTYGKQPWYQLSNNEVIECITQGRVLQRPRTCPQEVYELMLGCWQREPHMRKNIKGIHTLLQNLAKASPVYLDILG
T1 sequence (P04629 33-796 G667C): as the sequence (P04629 33-796 G595R) above, with R563G, G635C counted along it
T3 sequence (P04629 33-796): as the sequence (P04629 33-796 G595R) above, with R563G counted along it

IC50 [1] [nM] | IC50 (Recombinant human TRKC) [nM] | IC50 (Recombinant human TRKA) [nM] | IC50 (Recombinant human TRKB) [nM] | IC50 [2] [nM] | SMILES
< 10 | < 1 | < 1 | < 1 | < 10 | NC(=O)CN1CCC(n2cc(-c3c(F)cnc4ccc(N5C[C@@H](F)C[C@@H]5c5cc(F)ccc5F)nc34)cn2)CC1 [Example 74, 2-(4-(4-(6-((2R,4S)-2-(2,5-difluorophenyl)-4-fluoropyrrolidin-1-yl)-3-fluoro-1,5-naphthyridin-4-yl)-1H-pyrazol-1-yl)piperidin-1-yl)acetamide]
< 1 | < 1 | < 1 | < 1 | < 10 | CN1CCC(n2cc(-c3c(Cl)cnc4ccc(N5C[C@@H](F)C[C@@H]5c5cc(F)ccc5F)nc34)cn2)CC1 [Example 43, 7-Chloro-2-((2R,4S)-2-(2,5-difluorophenyl)-4-fluoropyrrolidin-1-yl)-8-(1-(1-methylpiperidine-4-yl)-1H-pyrazol-4-yl)-1,5-naphthyridine]
< 10 | < 1 | < 1 | < 1 | < 10 | N#Cc1cnc2ccc(N3C[C@@H](F)C[C@@H]3c3cc(F)ccc3F)nc2c1-c1cnn(C2CCNCC2)c1 [Example 36, 6-((2R,4S)-2-(2,5-difluorophenyl)-4-fluoropyrrolidin-1-yl)-4-(1-(piperidin-4-yl)-1H-pyrazol-4-yl)-1,5-naphthyridin-3-carbonitrile]
< 1 | < 1 | < 1 | < 1 | < 1 | OC[C@H](O)CN1CCC(n2cc(-c3c(Cl)cnc4ccc(N5C[C@@H](F)C[C@@H]5c5cc(F)ccc5F)nc34)cn2)CC1 [Example 40, (R)-3-(4-(4-(3-chloro-6-((2R,4S)-2-(2,5-difluorophenyl)-4-fluoropyrrolidin-1-yl)-1,5-naphthyridin-4-yl)-1H-pyrazol-1-yl)piperidin-1-yl)propane-1,2-diol]
< 50 | < 1 | < 1 | < 10 | < 1 | CC(C)N1CCC(n2cc(-c3ccnc4ccc(N5C[C@@H](F)C[C@@H]5c5cc(F)ccc5F)nc34)cn2)CC1 [Example 14]
< 1 | < 1 | < 1 | < 1 | < 1 | Fc1ccc(F)c([C@H]2C[C@H](F)CN2c2ccc3ncnc(-c4cnn(C5CCNCC5)c4)c3n2)c1 [Example 46]
< 10 | < 1 | < 10 | < 1 | < 1 | CS(=O)(=O)n1cc(-c2c(Cl)cnc3ccc(N4C[C@@H](F)C[C@@H]4c4cc(F)ccc4F)nc23)cn1 [Example 25, 7-chloro-2-((2R,4S)-2-(2,5-difluorophenyl)-4-fluoropyrrolidin-1-yl)-8-(1-(methylsulfonyl)-1H-pyrazol-4-yl)-1,5-naphthyridine]
< 100 | < 1 | < 1 | < 1 | < 1 | NC(=O)c1ccnc2ccc(N3CCC[C@@H]3c3cc(F)ccc3F)nc12 [Example 10, (R)-6-(2-(2,5-difluorophenyl)pyrrolidin-1-yl)-1,5-naphthyridin-4-carboxamide]
< 10 | < 1 | < 1 | < 1 | < 1 | Fc1ccc(F)c([C@H]2CCCN2c2ccc3nccc(-c4cnn(C5CCNCC5)c4F)c3n2)c1 [Example 15, (R)-2-(2-(2,5-Difluorophenyl)pyrrolidin-1-yl)-8-(5-fluoro-1-(piperidin-4-yl)-1H-pyrazole-4-yl)-1,5-naphthyridine]
< 10 | < 10 | < 1 | < 10 | < 10 | O[C@H]1CCN(c2ccc(-c3c(Cl)cnc4ccc(N5C[C@@H](F)C[C@@H]5c5cc(F)ccc5F)nc34)cn2)C1 [Example 66, (S)-1-(5-(3-chloro-6-((2R,4S)-2-(2,5-difluorophenyl)-4-fluoropyrrolidin-1-yl)-1,5-naphthyridin-4-yl)pyridin-2-yl)pyrrolidin-3-ol]
